We go through 2 molecules from article PMC8843742, “Eltrombopag inhibits TET dioxygenase to contribute to hematopoietic stem cell expansion in aplastic anemia” (The Journal of Clinical Investigation, 2022).

Molecules are shown by their SMILES.

Test [1] has as its target T1, thrombopoietin receptor (human TPOR) (Homo sapiens, UniProt P40238).
T1 construct: gene MPL; MPL open reading frame (NM_005373.2) in pCMV-3Tag-3a, expressed in BaF3 and 32D cells
T1 sequence (P40238 26-635): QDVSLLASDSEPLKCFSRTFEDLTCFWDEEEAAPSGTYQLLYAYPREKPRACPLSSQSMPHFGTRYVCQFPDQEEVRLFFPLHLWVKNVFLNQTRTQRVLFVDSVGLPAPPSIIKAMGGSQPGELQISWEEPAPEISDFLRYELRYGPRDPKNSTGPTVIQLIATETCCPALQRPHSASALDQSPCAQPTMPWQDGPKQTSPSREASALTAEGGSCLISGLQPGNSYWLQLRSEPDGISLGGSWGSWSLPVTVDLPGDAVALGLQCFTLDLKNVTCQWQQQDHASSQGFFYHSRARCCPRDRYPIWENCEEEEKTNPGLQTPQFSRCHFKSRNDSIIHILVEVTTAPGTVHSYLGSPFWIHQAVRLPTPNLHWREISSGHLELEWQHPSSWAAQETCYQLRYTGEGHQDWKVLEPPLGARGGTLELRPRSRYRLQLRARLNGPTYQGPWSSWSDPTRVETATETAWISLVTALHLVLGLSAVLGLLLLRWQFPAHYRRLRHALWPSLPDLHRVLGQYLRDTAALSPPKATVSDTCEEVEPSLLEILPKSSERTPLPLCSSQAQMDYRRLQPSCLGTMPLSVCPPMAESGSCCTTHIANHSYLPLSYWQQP
Briefly: STAT5 phosphorylation Western blot in parental vs human TPOR-expressing murine cells, […]. The format is cell-based.

The target of a further test is T2, TET1 (Homo sapiens, UniProt Q8NFU7).
T2 construct: recombinant catalytic domain (Epigentek, E12002-1)
T2 sequence (Q8NFU7 1418-2136 limits assumed): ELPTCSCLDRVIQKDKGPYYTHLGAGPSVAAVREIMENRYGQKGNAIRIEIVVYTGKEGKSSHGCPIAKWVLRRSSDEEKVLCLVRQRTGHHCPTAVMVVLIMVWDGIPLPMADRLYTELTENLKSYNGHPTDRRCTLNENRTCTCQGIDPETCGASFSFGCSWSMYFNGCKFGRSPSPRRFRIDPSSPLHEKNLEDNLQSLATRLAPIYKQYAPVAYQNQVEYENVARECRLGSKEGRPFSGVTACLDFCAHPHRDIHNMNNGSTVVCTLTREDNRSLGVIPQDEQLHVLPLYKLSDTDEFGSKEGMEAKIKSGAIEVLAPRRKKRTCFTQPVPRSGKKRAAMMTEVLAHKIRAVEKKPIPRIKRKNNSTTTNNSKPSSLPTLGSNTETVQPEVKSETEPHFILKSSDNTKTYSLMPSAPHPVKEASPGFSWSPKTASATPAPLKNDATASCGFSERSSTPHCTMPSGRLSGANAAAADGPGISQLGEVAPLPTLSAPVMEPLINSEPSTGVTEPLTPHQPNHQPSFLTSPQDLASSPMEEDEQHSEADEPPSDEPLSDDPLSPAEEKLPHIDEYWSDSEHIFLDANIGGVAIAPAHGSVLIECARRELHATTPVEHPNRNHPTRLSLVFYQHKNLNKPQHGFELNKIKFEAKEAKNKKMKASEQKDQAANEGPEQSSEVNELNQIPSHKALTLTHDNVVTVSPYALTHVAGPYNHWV
Briefly: 5hmC ELISA with recombinant protein. The test is classed as biochemical.

The next test has as its target T3, TET3 (Homo sapiens, UniProt O43151).
T3 construct: recombinant catalytic domain (BPS Bioscience, 50163)
T3 sequence (O43151 850-1795 limits assumed): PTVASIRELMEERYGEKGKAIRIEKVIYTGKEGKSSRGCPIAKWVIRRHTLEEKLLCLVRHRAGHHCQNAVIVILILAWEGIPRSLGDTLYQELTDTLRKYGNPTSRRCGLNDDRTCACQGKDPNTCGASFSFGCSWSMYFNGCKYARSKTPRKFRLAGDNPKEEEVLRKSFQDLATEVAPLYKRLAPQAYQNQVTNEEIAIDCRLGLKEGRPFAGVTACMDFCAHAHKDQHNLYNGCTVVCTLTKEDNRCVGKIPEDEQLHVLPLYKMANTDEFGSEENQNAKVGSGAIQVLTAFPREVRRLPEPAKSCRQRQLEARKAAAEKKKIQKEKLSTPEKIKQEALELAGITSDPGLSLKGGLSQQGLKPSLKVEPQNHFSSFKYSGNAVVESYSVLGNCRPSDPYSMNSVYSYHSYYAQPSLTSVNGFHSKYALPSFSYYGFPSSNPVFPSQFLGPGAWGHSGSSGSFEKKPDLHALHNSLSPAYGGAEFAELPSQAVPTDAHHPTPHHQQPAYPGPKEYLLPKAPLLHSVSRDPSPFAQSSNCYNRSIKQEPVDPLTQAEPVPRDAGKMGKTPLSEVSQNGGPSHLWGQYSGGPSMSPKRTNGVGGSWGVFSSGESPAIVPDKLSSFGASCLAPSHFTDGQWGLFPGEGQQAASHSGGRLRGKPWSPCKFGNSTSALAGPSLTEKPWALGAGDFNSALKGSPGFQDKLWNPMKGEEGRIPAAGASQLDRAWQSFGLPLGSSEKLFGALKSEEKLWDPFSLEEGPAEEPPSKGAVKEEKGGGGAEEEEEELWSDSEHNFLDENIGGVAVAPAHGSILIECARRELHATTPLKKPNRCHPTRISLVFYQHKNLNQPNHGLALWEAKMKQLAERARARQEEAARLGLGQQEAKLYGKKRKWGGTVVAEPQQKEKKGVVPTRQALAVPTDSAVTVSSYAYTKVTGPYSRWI
Briefly: 5hmC ELISA with recombinant protein. The test is classed as biochemical.

As to `O=C(Nc1nc(-c2cc(Cl)cs2)c(N2CCN(C3CCCCC3)CC2)s1)c1cnc(N2CCC(C(=O)O)CC2)c(Cl)c1` [Apag, avatrombopag], the “STAT5 phosphorylation Western blot in parental vs human TPOR-expressing murine c” value in test [1] is “a chemically unrelated non-peptidyl TPOR agonist) all activated the JAK/STAT pathway to the same extent in these cells”.

As to `CC1=NN(c2ccc(C)c(C)c2)C(=O)/C1=N\Nc1cccc(-c2cccc(C(=O)O)c2)c1O` [Epag, Eltrombopag], the “STAT5 phosphorylation Western blot in parental vs human TPOR-expressing murine c” value in test [1] is reported as “Reconstitution of human TPOR in murine cells restored STAT5 phosphorylation without any measurable changes in the dioxygenase activity”. The IC50 on TET1 was found to be 1000 ± 100 nM; on TET3, 1800 ± 100 nM.
